Columns and labels:
K562 = assay: In vitro chemosensitivity, microtetrazolium (MTT) assay, K562; type: cell-based; details: K562 human chronic myelogenous leukaemia, concentration reducing growth rate by 50% of untreated control
Experimental: (§1) The cytotoxic properties of selected examples were evaluated against a panel of established human tumour cell lines.
(§2) K562--a human chronic myelogenous leukaemia (Lozzio and Lozzio, 1975). HRT--18--a human primary adenocarcinoma from the human rectum (Tompkins et al, 1974).
(§3) Chemosensitivity in vitro was assessed using the microtetrazolium assay (MTT assay) (Twentyman & Luscombe, 1987).
(§4) Examples were soluble in 5% ethanol/saline. To each well, 20 μl of drug solution was added to give a final drug concentration of 0.1-100 μg/ml at four log increments. Solvent controls were used throughout, and the first row of each plate contained media plus drug in the absence of any cells. Each point is the result of three separate experiments and cytotoxic effects are expressed in terms of percent survival, taking the optical density of the control plates to represent 100% survival.
(§5) IC50 values are the average concentrations of drug required to reduce the growth rate by 50% of the untreated control system.

HCLO = assay: In vitro chemosensitivity, microtetrazolium (MTT) assay, HCLO; type: cell-based, human; details: concentration reducing growth rate by 50% of untreated control
Experimental: as §1
(§6) HT-29 primary adenocarcinomas of the human colon.
as §3, §4, §5

HRT-18 = assay: In vitro chemosensitivity, microtetrazolium (MTT) assay, HRT-18; type: cell-based; details: HRT-18 human rectum adenocarcinoma, concentration reducing growth rate by 50% of untreated control
Experimental: as §1, §2, §3, §4, §5

DLD-1 = assay: In vitro chemosensitivity, microtetrazolium (MTT) assay, DLD-1; type: cell-based; details: DLD-1 human colon adenocarcinoma, concentration reducing growth rate by 50% of untreated control
Experimental: as §1, §6, §3, §4, §5

HT-29 = assay: In vitro chemosensitivity, microtetrazolium (MTT) assay, HT-29; type: cell-based; details: HT-29 human colon adenocarcinoma, concentration reducing growth rate by 50% of untreated control
Experimental: as §1, §6, §3, §4, §5

man = details: in man; cited from earlier work
rodents = details: in rodents; cited from earlier work

Row | SMILES | IC50 (K562) [µM] | IC50 (HCLO) [µM] | IC50 (HRT-18) [µM] | IC50 (DLD-1) [µM] | IC50 (HT-29) [µM] | IC50 (HCLO; Homo sapiens) [µM] | maximum dose (man) [mg/kg] | maximum dose (rodents) [mg/kg]
1 | CSCC[C@H](N)C(=O)NCCCNc1cccc2c1C(=O)c1ccccc1C2=O [Example 12] | 17.2 | 11.8 | 10.4 | 4.1 | 7.8 |  |  | 
2 | N[C@@H](Cc1ccc(O)cc1)C(=O)NCCCNc1cccc2c1C(=O)c1ccccc1C2=O [Example 15, 1-[3-(L-tyrosinylaminopropyl)amino]-anthracene-9,10-dione] | 14.2 | 6.7 | 3 | 2.1 | 0.6 |  |  | 
3 | CC(C)(C)OC(=O)N[C@H](Cc1ccccc1)C(=O)NCCCNc1cccc2c1C(=O)c1ccccc1C2=O [Example 18, 1-[(3-N-tertiarybutoxycarbonyl-D-phenylalanylamino-propyl)amino]-anthracene-9,10-dione] | 19.8 | 17.4 | 7.7 | 13.2 | 2.5 |  |  | 
4 | N[C@H](Cc1ccccc1)C(=O)NCCCCNc1cccc2c1C(=O)c1ccccc1C2=O [Example 20, 1-[(4-D-phenylalanylaminobutyl)amino]-anthracene-9,10-dione] | 22.8 |  | 16.8 | 8.6 | 14.2 | 21.4 |  | 
5 | COc1cccc2c1C(=O)c1c(O)c3c(c(O)c1C2=O)C[C@@](O)(C(=O)CO)C[C@@H]3O[C@H]1C[C@H](N)[C@H](O)[C@H](C)O1 [doxorubicin] |  |  |  |  |  |  | 1 to 2 | 5
